From PMC5816172 (Proceedings of the National Academy of Sciences of the …, 2018)

System: NLRP3 inflammasome
Assay: NLRP3 inflammasome stimulation of J774A.1 macrophages
Assay type: cell-based, mouse
Conditions: J774A.1 (Fig. S7B), ACHP alone

## N#Cc1c(C2CCNCC2)cc(-c2c(O)cccc2OCC2CC2)nc1N [ACHP, 2-Amino-6-[2-(cyclopropylmethoxy)-6-hydroxyphenyl]-4-(4-piperidinyl)-3-pyridinecarbonitrile, reference compound]
  reduction of LPS/nigericin induction of IL-1β: 60%
